Laboratory results: article PMC7867265, “Phosphofructokinases A and B from Mycobacterium tuberculosis Display Different Catalytic Properties and Allosteric Regulation” (International Journal of Molecular Sciences, 2021)

Tests used:
[1] = biological target: T1, Pfk A (Mycobacterium tuberculosis, UniProt P9WID7)
T1 construct: gene pfkA

[2] = biological target: T1, Pfk A; remark: listed apart in the source
[3] = biological target: T2, Pfk B (Mycobacterium tuberculosis, UniProt P9WID3)
T2 construct: gene pfkB

[4] = biological target: T1, Pfk A; remark: listed apart in the source
[5] = biological target: T1, Pfk A; remark: listed apart in the source

T1 sequence (P9WID7 whole entry): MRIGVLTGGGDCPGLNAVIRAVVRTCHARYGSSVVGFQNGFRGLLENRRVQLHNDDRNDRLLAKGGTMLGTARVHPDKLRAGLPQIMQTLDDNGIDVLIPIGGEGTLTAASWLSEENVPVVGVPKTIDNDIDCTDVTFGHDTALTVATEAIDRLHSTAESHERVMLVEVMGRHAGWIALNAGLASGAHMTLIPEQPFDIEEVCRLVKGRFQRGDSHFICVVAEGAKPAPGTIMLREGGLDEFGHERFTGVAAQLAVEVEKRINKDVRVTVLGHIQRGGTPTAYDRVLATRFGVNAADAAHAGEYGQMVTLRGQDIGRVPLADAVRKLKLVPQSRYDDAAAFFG
T2 sequence (P9WID3 whole entry): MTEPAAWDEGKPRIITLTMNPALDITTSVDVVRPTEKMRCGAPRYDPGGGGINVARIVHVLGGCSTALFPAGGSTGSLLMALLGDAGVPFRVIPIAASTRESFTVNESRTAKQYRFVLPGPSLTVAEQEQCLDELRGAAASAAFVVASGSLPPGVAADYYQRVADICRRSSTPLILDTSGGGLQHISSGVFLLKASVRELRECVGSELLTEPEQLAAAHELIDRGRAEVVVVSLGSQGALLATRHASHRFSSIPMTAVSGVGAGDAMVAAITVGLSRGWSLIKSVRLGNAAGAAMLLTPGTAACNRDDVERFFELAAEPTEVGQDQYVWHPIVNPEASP

Nc1ncnc2c1ncn2[C@@H]1O[C@H](COP(=O)(O)OP(=O)(O)OP(=O)(O)O)[C@@H](O)[C@H]1O [ATP]
K1/2 (Km) [1]: 1.5 ± 0.3 mM

O=P(O)(O)OC[C@H]1OC(O)(CO)[C@@H](O)[C@@H]1O (some centres unmarked) [F6P]
K1/2 (Km) [1]: 13.2 ± 2.0 mM

O=P(O)(O)OC[C@H]1OC(O)(COP(=O)(O)O)[C@@H](O)[C@@H]1O (some centres unmarked) [F16bP]
feedback inhibition, modified coupled assay II [2]: Pfk A was efficiently inhibited by F16bP within the low micromolar concentration range

O=P(O)(O)OC[C@H]1O[C@@](CO)(OP(=O)(O)O)[C@@H](O)[C@@H]1O [F26bP]
% activation at 100 μM [3]: 20% | % activation at 100 μM [4]: 10%

Nc1nc2c(ncn2[C@@H]2O[C@H](COP(=O)(O)OP(=O)(O)O)[C@@H](O)[C@H]2O)c(=O)[nH]1 [GDP]
inhibition, coupled assay I [5]: Pfk A was found to be efficiently inhibited also by GDP within the millimolar concentration range

C=C(OP(=O)(O)O)C(=O)O [PEP]
inhibition, coupled assay I [5]: efficient Pfk A inhibition can be achieved by a low micromolar concentration of this metabolite

O=C(O)CC(O)(CC(=O)O)C(=O)O [citrate]
inhibition, coupled assay I [5]: Citrate also inhibited Pfk A, however, in millimolar concentrations
